Experimental data from patent US20060084704A1, “Methods and compositions for enhancing degradation of nuclear receptor transcription factors and uses thereof” (priority 2004, published 2006).

Tests used:
Assay type in all cases: cell-based
[1] = molecular target: T1, androgen receptor (AR) (Homo sapiens, UniProt P10275); assay: Western blot of T47D cell lysates, AR; conditions: 5 or 10 micromolar, presence or absence of estradiol (E2)
T1 construct: endogenous in cells; host or cells: T47D
T1 sequence (P10275 1-920): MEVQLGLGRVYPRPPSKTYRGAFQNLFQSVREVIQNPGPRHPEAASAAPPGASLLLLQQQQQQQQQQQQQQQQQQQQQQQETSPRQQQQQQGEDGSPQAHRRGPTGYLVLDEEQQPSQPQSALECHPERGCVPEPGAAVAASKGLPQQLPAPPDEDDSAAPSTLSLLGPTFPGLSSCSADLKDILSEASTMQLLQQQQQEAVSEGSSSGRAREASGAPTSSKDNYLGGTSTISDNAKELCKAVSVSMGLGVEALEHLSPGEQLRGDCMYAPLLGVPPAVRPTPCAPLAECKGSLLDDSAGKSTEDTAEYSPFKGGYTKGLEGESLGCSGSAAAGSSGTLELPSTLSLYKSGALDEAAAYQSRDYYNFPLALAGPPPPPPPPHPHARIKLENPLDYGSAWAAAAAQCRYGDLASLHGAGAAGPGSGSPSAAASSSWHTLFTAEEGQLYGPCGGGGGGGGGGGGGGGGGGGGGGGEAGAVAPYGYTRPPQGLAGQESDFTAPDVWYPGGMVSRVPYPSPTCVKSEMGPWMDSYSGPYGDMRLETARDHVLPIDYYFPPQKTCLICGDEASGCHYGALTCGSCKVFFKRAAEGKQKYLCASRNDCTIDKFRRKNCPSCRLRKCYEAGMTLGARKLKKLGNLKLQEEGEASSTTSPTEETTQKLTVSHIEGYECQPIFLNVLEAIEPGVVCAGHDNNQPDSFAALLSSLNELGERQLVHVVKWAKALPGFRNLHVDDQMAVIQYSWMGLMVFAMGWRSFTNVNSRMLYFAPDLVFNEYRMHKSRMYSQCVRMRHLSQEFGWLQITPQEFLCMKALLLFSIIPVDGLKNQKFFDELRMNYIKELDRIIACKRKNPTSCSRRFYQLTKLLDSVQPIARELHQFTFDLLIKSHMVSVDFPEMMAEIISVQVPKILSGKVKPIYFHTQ
Protocol: (§1) Human prostate cancer LNCaP cells and T47D cells were plated at a density of 7×10^5 cells per 60 millimeter tissue culture dish in […] (RPMI) medium containing 10% FBS. The medium was changed to RPMI or DME medium containing 10% charcoal-stripped serum 24 hours later to deplete cellular androgens or estrogens. After another 24 hours, treatment with the test compounds began. The test dose of JC15 was 1 or 2 micromolar and the test does of JC9 was 1, 5 and 10 micromolar. LNCap cells also received dihydrotestosterone (DHT) (3 nanomolar). Control cells received a corresponding amount of the vehicle, dimethylsulfoxide (DMSO) (<0.04%) for an equivalent exposure time. Cells were incubated with JC15 for 24 or 48 hours, and were lysed in 250 microliters of 1×SDS/PAGE loading buffer. Approximately 40 micrograms of total cellular protein was loaded in each lane of a pre-cast gel (NuPAGE, Invitrogen). Protein separation and transfer were performed following the manufacturer's instructions.

[2] = molecular target: T2, wild type androgen receptor (Homo sapiens, UniProt P10275); assay: Androgen receptor transactivation assay in CV-1 cells (MMTV-luciferase reporter); conditions: CV-1 cells transfected with wild type AR, DHT 1 nM, JC9 0 uM to 7.5 uM
T2 construct: expressed in transfected cells; host or cells: CV-1 (green monkey kidney cells lacking an androgen receptor)
T2 sequence (P10275 1-920): T1 sequence (P10275 1-920)
Description: Prostate cancer cells, non-prostate tumor cells, and normal cells can be used in this transient transfection assay, which measures transactivation of the androgen receptor (AR) and can be used to detect a reduction of AR activity caused by AR degradation. In the provided non-limiting example, CV-1 (green monkey kidney cells lacking an androgen receptor) and LNCaP cells (prostate cancer cells containing an endogenous mutant AR), were transfected with a plasmid carrying an androgen response element (ARE) and a reporter gene.
Both the CV-1 and LNCaP cells (obtained from ATCC, Manassas, Va.) were maintained in […] medium supplemented with penicillin (25 units/millilter), streptomycin (25 micrograms/milliliter), and 10% heat-inactivated fetal bovine serum (FBS). Cells were plated in 35-millimeter dishes at a concentration of 1-2×10^5cells/well and cultured at 37 degrees Celsius in an incubator under a 5% carbon dioxide atmosphere. […] The cells were lysed, and luciferase activity of the lysate was measured with the Dual-Luciferase Reporter Assay System (Promega, Madison, Wis.). Data were expressed as relative luciferase activity normalized to the internal luciferase positive control. […]

[3] = molecular target: T3, PPAR beta (Homo sapiens, UniProt Q03181); assay: Western blot of LNCaP cell lysates, PPAR beta; conditions: 1 or 2 micromolar, 24 hours, presence or absence of DHT
T3 construct: endogenous in cells; host or cells: LNCaP
T3 sequence (Q03181 1-441): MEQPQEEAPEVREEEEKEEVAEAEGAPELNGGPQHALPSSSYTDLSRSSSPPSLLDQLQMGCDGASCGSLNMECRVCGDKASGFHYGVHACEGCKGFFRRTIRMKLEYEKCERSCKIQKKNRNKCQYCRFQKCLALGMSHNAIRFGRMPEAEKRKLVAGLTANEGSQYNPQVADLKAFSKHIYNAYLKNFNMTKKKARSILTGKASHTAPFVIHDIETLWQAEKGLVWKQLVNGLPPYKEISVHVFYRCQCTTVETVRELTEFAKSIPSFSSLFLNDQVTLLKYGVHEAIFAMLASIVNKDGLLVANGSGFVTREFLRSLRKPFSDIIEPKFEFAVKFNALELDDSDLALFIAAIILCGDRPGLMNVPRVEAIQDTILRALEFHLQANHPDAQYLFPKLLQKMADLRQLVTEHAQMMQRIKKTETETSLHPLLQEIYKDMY
Protocol: as §1
For the prostate cell lysates, androgen receptor (AR) protein was visualized by incubating the resultant membranes with an anti-AR antibody (BD-PharMingen), followed by chemiluminescence detection (ECL Plus, Amersham). […] The resultant protein signals were quantified using densitometry and NIH ImageJ software.

cellular concentration of PPAR beta [3] | SMILES | cellular concentration of AR [1] | DHT-induced androgen receptor transcriptional activation (relative luciferase activity) [2]
– | COc1ccc(C=CC(=O)C=C(O)C=Cc2ccc(OC)c(OC)c2)cc1OC [JC9, 5-hydroxy-1,7-bis(3,4-dimethoxyphenyl)-1,4,6-heptatrien-3-one] | decreased | capable of inhibiting DHT-induced androgen receptor transcriptional activation in a dose dependent manner
did not substantially affect | CCOC(=O)CCC(C(=O)C=Cc1ccc(O)c(OC)c1)C(=O)C=Cc1ccc(O)c(OC)c1 (stereo not drawn) [JC15, 7-(4-hydroxy-3-methoxyphenyl)-4-[3-(4-hydroxy-3-methoxyphenyl)acryloyl]-5-oxo-hept-6-enoic acid ethyl ester] | – | –
